Like-named read-outs stand apart in the source and are kept apart here.
Experiments:
M1 mAChR = molecular target: T1, M1 mAChR (Homo sapiens, UniProt P11229); assay: β-arrestin 2 recruitment assay (BRET); format: cell-based; conditions: for αβ (functional cooperativity with ACh) / τB (intrinsic efficacy of the modulator): antilog, in parentheses; for log τB (logarithm of intrinsic efficacy of the modulator) / log αβ (logarithm of functional cooperativity between ACh and modulator): operational model; for log αβ (logarithm of functional cooperativity between ACh and modulator): pKB constrained to binding value
T1 construct: expressed in transfected cells; host or cells: parental FlpIn CHO cells (transient, PEI)
T1 sequence (P11229 1-460): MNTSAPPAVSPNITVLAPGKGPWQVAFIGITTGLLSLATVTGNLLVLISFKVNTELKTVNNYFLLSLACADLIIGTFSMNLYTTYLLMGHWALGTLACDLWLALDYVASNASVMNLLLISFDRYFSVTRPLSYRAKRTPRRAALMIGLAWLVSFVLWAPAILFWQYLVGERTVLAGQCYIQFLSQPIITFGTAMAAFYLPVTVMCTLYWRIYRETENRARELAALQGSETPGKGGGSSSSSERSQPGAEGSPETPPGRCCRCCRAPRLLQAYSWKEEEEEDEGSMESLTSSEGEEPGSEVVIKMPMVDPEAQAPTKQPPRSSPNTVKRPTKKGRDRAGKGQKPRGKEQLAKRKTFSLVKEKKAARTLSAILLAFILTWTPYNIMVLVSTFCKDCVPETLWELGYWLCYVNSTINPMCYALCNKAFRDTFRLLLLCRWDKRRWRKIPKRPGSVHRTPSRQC
Excerpt: The compounds were then fully characterised in two functional assays (Figure 2C and D); the Gq-coupled IP1 accumulation assay (Figure S2), which was used for the initial screening of the compounds, and a β-arrestin 2 recruitment assay (Figure S3). The operational efficacy (τB) values for the modulators and their functional cooperativity estimates with ACh (logαβACh) at both signalling pathways were estimated by applying an operational model of allosterism and agonism to the data [Eq. (3)],[16] and are listed in Table 5.
Parental FlpIn CHO cells were plated at 30000 cells/well of 96-well white Culture plates (Perkin Elmer Life Sciences) and transiently transfected with 10 ng/well of M1 Renilla luciferase (Rluc)-8 and 40 ng/well of YFP-β-arrestin 2 using linear polyethyleneimine (PEI/DNA ratio 6:1) diluted in 150 mM NaCl. DNA:PEI complexes were formed by 15 min incubation at room temperature then added to the cells and incubated at 37°C for 24 h prior to use. Cells were then washed and equilibrated in Hanks’ balanced salt solution for 1 h at 37°C. Coelenterazine h at a final concentration of 5 μM was added to each well, followed by addition of increasing concentrations of ACh in the absence or presence of increasing concentrations of each modulator. Lumines-cence and fluorescence signals were measured 5 min after agonist stimulation using the LUMIstar Omega plate reader (BMG LabTech, Offenburg, Germany). […] Data were then normalized to the maximum response to ACh.
Functional interaction studies between ACh and allosteric modulators in IP1 and β-arrestin 2 recruitment assays were analysed according to a three-parameter logistic equation or the following operational model of allosterism and agonism [Eq. (3)].[16] E=Basal+(Em−Basal)([A](KB+αβ[B])+τB[B]EC50)^n/EC50n(KB+[B])^n+([A](KB+αβ[B])+τB[B]EC50)^n where Em is the maximal possible system response, and Basal is the response in the absence of agonist. [A] and [B] are concentrations of orthosteric and allosteric ligands, respectively. KB is the equilibrium dissociation constant of allosteric ligand, and EC50 is the concentration of orthosteric agonist required to achieve half maximal response. α and β represent the magnitude of the allosteric effects on orthosteric ligand affinity and efficacy, respectively; τB is the efficacy of allosteric ligand, and n is the slope factor of the transducer function that links occupancy to response.

[1] = In vivo brain and plasma exposure in mice after IP administration; conditions: for cplasma, total concentration, 90 min post-dose / cplasma, total concentration, 20 or 45 min post-dose / cbrain, total concentration, 90 min post-dose: range n=3; for cbrain, total concentration, 20 or 45 min post-dose / cplasma, total concentration, 20 or 45 min post-dose: 20 min (10 mg/kg) for 2, 7f, 13c, 45 min (20 mg/kg) for BQCA; for cbrain, total concentration, 20 or 45 min post-dose: range in individual mice n=3
Protocol: The study was performed using 10–12 weeks old male C57Bl/6 J naïve mice in accordance with the Australian Code of Practice for the Care and Use of Animals for Scientific Purposes, with procedures approved by the Animal Ethics Committee of the Monash Institute of Pharmaceutical Sciences.

hM1 mAChR = molecular target: T2, hM1 mAChR (Homo sapiens, UniProt P11229); assay: Whole-cell [3H]NMS equilibrium competition radioligand binding; conditions: [3H]NMS binding; for α (binding cooperativity with ACh): antilog
T2 construct: expressed in transfected cells
T2 sequence (P11229 1-460): T1 sequence (P11229 1-460)
Protocol: To determine the affinity (pKB) of the allosteric modulators for the allosteric site, and their binding cooperativity with ACh (log αACh) at the M1 mAChR, whole cell equilibrium competition binding studies were performed, using [^3H]NMS to label the orthosteric site.
FlpIn Chinese hamster ovary (CHO) cells stably expressing the hM1 mAChR were grown in Dulbecco’s modified Eagle’s medium (DMEM) (Invitrogen, Carlsbad, CA) supplemented with 5% foetal bovine serum (FBS) (Thermo-Trace, Melbourne, Australia) and 300 μg/mL G418 (Invitrogen, Carlsbad, CA). The cells were plated at 50,000 cells per well of 96-well white clear bottom plates (Greiner Bio-one, Kremsmünster, Austria), and were grown overnight. The following day, cells were washed twice with Phosphate Buffered Saline (PBS), and incubated with increasing concentrations of ACh (Sigma) in the absence or presence of increasing concentrations of each modulator and 0.2 nM [^3H]NMS (PerkinElmer Life Sciences) in binding buffer (20 mM HEPES, 100 mM NaCl, 10 mM MgCl2, pH 7.4) for 5 h at room temperature. Nonspecific binding was determined using atropine at the final concentration of 10 μM. The assays were terminated by rapid removal of the unbound radioligand followed by two washes with 100 μL/well ice-cold 0.9% NaCl buffer. Radioactivity was determined by addition of 100 μL/well Ultima gold (PerkinElmer Life Sciences) and counting in a MicroBeta plate reader (PerkinElmer Life Sciences).
Binding interaction studies with allosteric ligands were fitted to the following allosteric ternary complex model [Eq. (2)][15] Y=Bmax|A|/[Λ]+[KAKB/α^′[B]+KB][1+[I]/K1+[B]/KB+α[I][B]/KIKB] where Bmax is the total number of receptors, [A], [B] and [I] denote the concentrations of radioligand, allosteric modulator, and orthosteric ligand, respectively; KA, KB and KI are their respective equilibrium dissociation constants. α’ and α are the affinity cooperativity factors between the allosteric ligand and radioligand or the allosteric modulator and ACh, respectively. Values of α or α’ > 1 denote positive cooperativity, values < 1 but > 0 denote negative cooperativity, and a value of 1 indicates neutral coopera-tivity.

[2] = allosteric ternary complex model, mean ± SEM, read-out: pKB (negative logarithm of the allosteric modulator equilibrium dissociation constant) (converted)
[3] = 10 mg/kg (BQCA 20 mg/kg), range n=3, in parentheses
[4] = 20 min (10 mg/kg) for 2, 45 min (20 mg/kg) for BQCA, range n=3, in parentheses

## Cn1cc(-c2ccc(COc3ncccc3-c3ccn(C4CCCCC4O)c(=O)c3)cc2)cn1 (stereo not shown) [Compound 7f, 1’-(2-Hydroxycyclohexyl)-2-((4-(1-methyl-1H-pyrazol-4-yl)benzyl)oxy)-[3,4’-bipyridin]-2’(1’H)-one]
M1 mAChR
  αβ (functional cooperativity with ACh): 81
  τB (intrinsic efficacy of the modulator): 2
  log τB (logarithm of intrinsic efficacy of the modulator): 0.23±0.08
  log αβ (logarithm of functional cooperativity between ACh and modulator): 1.91±0.10
[1]; 10 mg/kg (BQCA 20 mg/kg)
  cplasma, total concentration, 90 min post-dose: 11.1–13.7 (n.a.) μM
[1]
  cbrain, total concentration, 20 or 45 min post-dose: 0.3–0.4 (n.a.) μM
  cplasma, total concentration, 20 or 45 min post-dose: 31.8–40.7 (n.a.) μM
hM1 mAChR; [2]
  Kb: 38 µM
hM1 mAChR; in parentheses
  α (binding cooperativity with ACh): 240
hM1 mAChR; mean ± SEM
  log αACh (logarithm of binding cooperativity between ACh and modulator): 2.38±0.39

## CN(C)C(=O)Cn1ccc(-c2ccccc2OCc2ccc(-c3cnn(C)c3)cc2)cc1=O [Compound 13c, N,N-Dimethyl-2-(4-(2-((4-(1-methyl-1H-pyrazol-4-yl)benzyl)oxy)phenyl)-2-oxopyridin-1(2H)-yl)acetamide]
M1 mAChR
  αβ (functional cooperativity with ACh): 55
  τB (intrinsic efficacy of the modulator): 1
  log τB (logarithm of intrinsic efficacy of the modulator): –0.01±0.06
  log αβ (logarithm of functional cooperativity between ACh and modulator): 1.74±0.11
[1]; 10 mg/kg (BQCA 20 mg/kg)
  cbrain, total concentration, 90 min post-dose: n.q.
  cplasma, total concentration, 90 min post-dose: 4.9–5.4 (n.a.) μM
[1]
  cbrain, total concentration, 20 or 45 min post-dose: n.q.
  cplasma, total concentration, 20 or 45 min post-dose: 25.3–46.5 (n.a.) μM
hM1 mAChR; [2]
  Kb: 16.6 µM
hM1 mAChR; in parentheses
  α (binding cooperativity with ACh): 72
hM1 mAChR; mean ± SEM
  log αACh (logarithm of binding cooperativity between ACh and modulator): 1.86±0.28

## Cn1cc(-c2ccc(COc3ccccc3-c3cc(=O)n(C4CCCCC4O)cn3)cc2)cn1 (stereo not shown) [Compound 2, 3-(2-Hydroxycyclohexyl)-6-(2-((4-(1-methyl-1H-pyrazol-4-yl)benzyl)oxy)phenyl)pyrimidin-4(3H)-one]
M1 mAChR
  αβ (functional cooperativity with ACh): 63
  τB (intrinsic efficacy of the modulator): 2
  log τB (logarithm of intrinsic efficacy of the modulator): 0.37±0.11
  log αβ (logarithm of functional cooperativity between ACh and modulator): 1.80±0.35
[1]; 10 mg/kg (BQCA 20 mg/kg)
  cbrain, total concentration, 90 min post-dose: 0.0 to 0.1 µM
  cplasma, total concentration, 90 min post-dose: 0.7 to 1.1 µM
[1]; [3]
  cbrain, unbound concentration, 90 min post-dose: 0.0 µM
  cplasma, unbound concentration, 90 min post-dose: 0.0 µM
[1]
  cbrain, total concentration, 20 or 45 min post-dose: 0.7 to 1.2 µM
  cplasma, total concentration, 20 or 45 min post-dose: 15.0 to 16.5 µM
[1]; [4]
  cbrain, unbound concentration, 20 or 45 min post-dose: 0.0 µM
  cplasma, unbound concentration, 20 or 45 min post-dose: 0.1 µM
hM1 mAChR; KB, antilog of pKB, in parentheses
  Kb: 3 µM
hM1 mAChR; in parentheses
  α (binding cooperativity with ACh): 240
hM1 mAChR; mean ± SEM
  log αACh (logarithm of binding cooperativity between ACh and modulator): 2.38±0.13
hM1 mAChR; pKB (negative logarithm of the allosteric modulator equilibrium dissociation constant), allosteric ternary complex model, mean ± SEM
  Kb: 3.16 µM
